Measurements reported in the NIST ThermoML archive (doi:10.1021/je900570e).
Where “and” joins values, the source holds several entries; their conditions need not be identical. Equal entries are not always repeated. ± gives the expanded uncertainty stated by the source.

Tests used:
[1] = Liquid; for viscosity / speed of sound: 101 kPa; for viscosity: Capillary tube (Ostwald / Ubbelohde) method; for mass density: 101.33 kPa, Vibrating tube method; for speed of sound: Frequency=2 MHz, Pulse-echo method
[2] = xn = mol fraction of the nth substance listed; conditions: Liquid; for viscosity / speed of sound: 101 kPa; for viscosity: Capillary tube (Ostwald / Ubbelohde) method; for speed of sound: Frequency=2 MHz, Pulse-echo method; for mass density: 101.33 kPa, Vibrating tube method

Compound | viscosity ([1]; 298.15 K) [mPa·s] | mass density ([1]; 298.15 K) [kg/m3] | viscosity ([1]; 303.15 K) [mPa·s] | speed of sound ([1]; 303.15 K) [m/s] | mass density ([1]; 303.15 K) | viscosity ([1]; 308.15 K) [mPa·s] | speed of sound ([1]; 308.15 K) [m/s] | mass density ([1]; 308.15 K) [kg/m3] | viscosity ([1]; 313.15 K) [mPa·s] | speed of sound ([1]; 313.15 K) [m/s] | mass density ([1]; 313.15 K) [kg/m3] | viscosity ([2]; 303.15 K, x2 = 0) [mPa·s] | speed of sound ([2]; 303.15 K, x2 = 0) [m/s] | mass density ([2]; 303.15 K, x2 = 0) [kg/m3] | viscosity ([2]; 308.15 K, x2 = 0) [mPa·s] | speed of sound ([2]; 308.15 K, x2 = 0) [m/s] | mass density ([2]; 308.15 K, x2 = 0) [kg/m3] | viscosity ([2]; 313.15 K, x2 = 0) [mPa·s] | speed of sound ([2]; 313.15 K, x2 = 0) [m/s] | mass density ([2]; 313.15 K, x2 = 0) [kg/m3] | also measured
ClC(Cl)=C(Cl)Cl [tetrachloroethene] | 0.847 ± 0.012 | 1614.8 ± 0.8 | 0.7971 ± 0.012 | 1028 ± 6.3 | 1607.2 ± 0.8 kg/m3 | 0.7657 ± 0.012 | 1014 ± 6.2 | 1597.9 ± 0.8 | 0.7395 ± 0.012 | 996.6 ± 6.1 | 1590.6 ± 0.8 | – | – | – | – | – | – | – | – | – | –
N#CCc1ccccc1 [benzeneacetonitrile] + ClCC(Cl)Cl | – | – | – | – | – | – | – | – | – | – | – | – | – | – | – | – | – | – | – | – | viscosity ([2]; 303.15 K, x1 = 1): 1.761 ± 0.023 mPa·s; speed of sound ([2]; 303.15 K, x1 = 1): 1519.2 ± 9.4 m/s; mass density ([2]; 303.15 K, x1 = 1): 1008.8 ± 0.9 kg/m3; viscosity ([2]; 308.15 K, x1 = 1): 1.602 ± 0.021 mPa·s; speed of sound ([2]; 308.15 K, x1 = 1): 1512.9 ± 9.3 m/s; mass density ([2]; 308.15 K, x1 = 1): 1004.1 ± 0.8 kg/m3; viscosity ([2]; 313.15 K, x1 = 1): 1.489 ± 0.02 mPa·s; speed of sound ([2]; 313.15 K, x1 = 1): 1503.4 ± 9.3 m/s; mass density ([2]; 313.15 K, x1 = 1): 999.5 ± 0.8 kg/m3
ClC=C(Cl)Cl [trichloroethene] + N#CCc1ccccc1 | – | – | – | – | – | – | – | – | – | – | – | 0.5172 ± 0.011 | 1014.7 ± 6.2 | 1447.5 ± 0.6 | 0.4992 ± 0.011 | 993.7 ± 6.1 | 1437.8 ± 0.6 | 0.4833 ± 0.011 | 982 ± 6 | 1430.4 ± 0.6 | –
ClC(Cl)C(Cl)Cl [1,1,2,2-tetrachloroethane] | – | 1586.8 ± 1.4 | 1.456 ± 0.017 | 1134.7 ± 7 | 1579.6 ± 1.4 kg/m3 | 1.354 ± 0.017 | 1115.5 ± 6.9 | 1570.6 ± 1.4 | 1.261 ± 0.016 | 1095.5 ± 6.8 | 1563.7 ± 1.4 | – | – | – | – | – | – | – | – | – | –
ClC=C(Cl)Cl [trichloroethene] | 0.527 ± 0.011 | 1455.9 ± 0.6 | 0.5172 ± 0.011 | 1014.7 ± 6.2 | 1447.5 ± 0.6 kg/m3 | 0.4992 ± 0.011 | 993.7 ± 6.1 | 1437.8 ± 0.6 | 0.4833 ± 0.011 | 982 ± 6 | 1430.4 ± 0.6 | – | – | – | – | – | – | – | – | – | –
ClCC(Cl)Cl [1,1,2-trichloroethane] | 1.105 ± 0.016 | – | 1.019 ± 0.016 | 1129.2 ± 7.1 | 1425 ± 1.8 kg/m3 | 0.9483 ± 0.015 | 1115.9 ± 7 | 1416.1 ± 1.8 | 0.8888 ± 0.015 | 1096.1 ± 6.9 | 1409.6 ± 1.8 | – | – | – | – | – | – | – | – | – | –
ClCCCl [1,2-dichloroethane] | 0.776 ± 0.012 | 1246.7 ± 0.4 | 0.7237 ± 0.012 | 1174 ± 7.2 | 1238.7 ± 0.4 kg/m3 | 0.6737 ± 0.011 | 1164.8 ± 7.1 | 1230.5 ± 0.4 | 0.6419 ± 0.011 | 1153.5 ± 7 | 1223.7 ± 0.4 | – | – | – | – | – | – | – | – | – | –
ClCCCl [1,2-dichloroethane] + N#CCc1ccccc1 | – | – | – | – | – | – | – | – | – | – | – | 0.7237 ± 0.012 | 1174 ± 7.1 | 1238.7 ± 0.4 | 0.6737 ± 0.011 | 1164.8 ± 7.1 | 1230.5 ± 0.4 | 0.6419 ± 0.011 | 1153.5 ± 7 | 1223.7 ± 0.4 | –
N#CCc1ccccc1 [benzeneacetonitrile] | – | – | 1.761 ± 0.023 | 1519.2 ± 9.4 | 1008.83 ± 0.86 kg/m3 and 1008.8 ± 0.9 kg/m3 | 1.602 ± 0.021 | 1512.9 ± 9.3 | 1004.1 ± 0.8 | 1.489 ± 0.02 | 1503.4 ± 9.3 | 999.5 ± 0.8 | – | – | – | – | – | – | – | – | – | –
ClC(Cl)C(Cl)Cl [1,1,2,2-tetrachloroethane] + N#CCc1ccccc1 | – | – | – | – | – | – | – | – | – | – | – | 1.456 ± 0.017 | 1134.7 ± 7 | 1579.6 ± 1.4 | 1.354 ± 0.017 | 1115.5 ± 6.9 | 1570.6 ± 1.4 | 1.261 ± 0.016 | 1095.5 ± 6.8 | 1563.7 ± 1.4 | –
ClC(Cl)=C(Cl)Cl [tetrachloroethene] + N#CCc1ccccc1 | – | – | – | – | – | – | – | – | – | – | – | 0.7971 ± 0.012 | 1028 ± 6.3 | 1607.2 ± 0.8 | 0.7657 ± 0.012 | 1014 ± 6.2 | 1597.9 ± 0.8 | 0.7395 ± 0.012 | 996.6 ± 6.1 | 1590.6 ± 0.8 | –
